Experimental data from article PMC2716805, “Canine Plasminogen: Spectral Responses to Changes in 6-Aminohexanoate and Temperature” (2007).

Target: T1, canine plasminogen (DPGN) (Canis lupus, UniProt P80009)
T1 construct: gene PLG; intact plasminogen purified from dog blood (samples showing conversion to lys-plasminogen or plasmin discarded)
Assay: titration followed by 4th derivative near-UV absorption spectroscopy (R-values)
Format: binding

T1 sequence (P80009 with tags, fused parts or gaps): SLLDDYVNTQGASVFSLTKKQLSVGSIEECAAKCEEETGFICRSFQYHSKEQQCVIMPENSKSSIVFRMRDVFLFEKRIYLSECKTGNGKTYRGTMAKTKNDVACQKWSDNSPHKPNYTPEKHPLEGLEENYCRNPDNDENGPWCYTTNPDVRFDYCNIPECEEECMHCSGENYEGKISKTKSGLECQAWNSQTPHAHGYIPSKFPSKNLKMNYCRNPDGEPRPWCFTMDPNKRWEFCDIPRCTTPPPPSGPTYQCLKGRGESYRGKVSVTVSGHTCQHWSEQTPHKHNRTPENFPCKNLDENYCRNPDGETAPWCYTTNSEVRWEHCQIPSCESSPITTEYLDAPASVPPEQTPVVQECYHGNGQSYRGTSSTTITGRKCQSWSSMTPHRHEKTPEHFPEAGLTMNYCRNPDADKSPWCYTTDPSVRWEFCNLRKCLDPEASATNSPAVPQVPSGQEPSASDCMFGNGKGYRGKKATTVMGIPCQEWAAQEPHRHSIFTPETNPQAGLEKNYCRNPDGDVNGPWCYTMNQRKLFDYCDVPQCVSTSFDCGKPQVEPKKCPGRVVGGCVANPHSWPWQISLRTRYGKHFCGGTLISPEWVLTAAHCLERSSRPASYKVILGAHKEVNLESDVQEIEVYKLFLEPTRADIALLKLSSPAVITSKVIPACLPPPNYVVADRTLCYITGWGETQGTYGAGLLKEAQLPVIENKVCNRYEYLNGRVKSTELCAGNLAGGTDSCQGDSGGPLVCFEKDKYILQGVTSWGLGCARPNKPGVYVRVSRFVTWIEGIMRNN

`NCCCCCC(=O)O` [6-AH, 6-aminohexanoate] gave a Kd of ~1 µM.
